In general, IC50 refers to the point on the concentration scale where inhibition reaches its midpoint.

For the experiment, the target named is HPK1 (Homo sapiens (Human), UniProt Q92918). The experiment is described as follows: HPK1 biochemical enzyme assay (microfluidic mobility shift assay). Particulars: 1.5 nM HPK1, ATP 1 mM final, 30 min preincubation, 60 min at RT, Caliper EZ Reader; read-out: HPK1 1000UMATP caliper IC50. In short, it runs like this: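 Ten-point compound titrations (top 3 μM final) preincubated 30 min with HPK1 and substrate, then reaction started with 1 mM ATP and 1 μM substrate, 5 mM MgCl2. After 60 min at RT, reaction terminated and product measured by microfluidic mobility shift.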
Chain of HPK1 (Q92918 whole entry): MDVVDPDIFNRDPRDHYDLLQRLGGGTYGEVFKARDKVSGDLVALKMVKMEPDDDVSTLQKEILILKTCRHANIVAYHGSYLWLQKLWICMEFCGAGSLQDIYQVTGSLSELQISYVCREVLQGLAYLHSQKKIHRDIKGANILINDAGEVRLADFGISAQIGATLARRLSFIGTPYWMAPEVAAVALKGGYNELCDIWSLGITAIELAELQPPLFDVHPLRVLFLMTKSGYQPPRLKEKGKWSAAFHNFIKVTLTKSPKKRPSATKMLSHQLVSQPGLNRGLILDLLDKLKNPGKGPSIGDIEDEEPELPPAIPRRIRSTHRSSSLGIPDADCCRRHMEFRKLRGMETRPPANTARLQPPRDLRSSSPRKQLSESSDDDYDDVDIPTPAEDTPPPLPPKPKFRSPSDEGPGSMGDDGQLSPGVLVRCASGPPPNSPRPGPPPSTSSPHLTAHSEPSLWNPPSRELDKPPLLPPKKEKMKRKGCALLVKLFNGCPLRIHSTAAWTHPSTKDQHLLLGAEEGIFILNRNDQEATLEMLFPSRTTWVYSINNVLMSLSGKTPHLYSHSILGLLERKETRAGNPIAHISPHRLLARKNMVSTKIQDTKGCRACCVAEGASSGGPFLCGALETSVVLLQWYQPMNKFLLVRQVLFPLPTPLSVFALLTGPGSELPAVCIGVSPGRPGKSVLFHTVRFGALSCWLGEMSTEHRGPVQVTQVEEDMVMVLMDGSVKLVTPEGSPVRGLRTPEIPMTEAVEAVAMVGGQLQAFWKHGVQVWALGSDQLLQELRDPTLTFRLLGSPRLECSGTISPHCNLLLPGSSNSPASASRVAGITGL
Regarding `C[C@H](c1ccc(Nc2ccc(-c3cnc4cc(F)ccn34)c3c2C(=O)NC3)nc1)N1CCC[C@H](O)C1` (stereo in doubt) [I-514, 4-(7-fluoroimidazo [1,2-a]pyridin-3-yl)-7-((5-((R)-1-((S)-3-hydroxypiperidin-1-yl)ethyl)pyridin-2-yl)amino)isoin-dolin-1-one], the IC50 was less than 100 nM.
Take `Cn1cnc2c(-c3ccc(Nc4ccc(N5CCNCC5)cn4)c4c3CNC4=O)cccc21` [I-122, 4-(1-methylbenzimidazol-4-yl)-7-[(5-piperazin-1-yl-2-pyridyl)amino] isoindolin-1-one]: the concentration for half-maximal inhibition (IC50) was less than 100 nM.
As for `CN(C)CC1COCCN1c1ccc(Nc2ccc(-c3cnc4cc(F)ccn34)c3c2C(=O)NC3)nc1` (stereo not shown) [I-517, 7-[ [5-[3-[(dimethylamino)-methyl]mor-pholin-4-yl]-2-pyridyl]amino]-4-(7-fluoroimidazo [1,2-a]pyridin-3-yl)isoindolin-1-one], the IC50 was less than 100 nM.
For `CN(C)Cc1nc(Nc2cnc(-c3ccnc4c3ccn4C)c3c2C(=O)NC3)ccc1N1CCO[C@@H](C(C)(C)O)C1` [I-769, (R)-7-((6-((dimethylamino)-methyl)-5-(2-(2-hydroxypropan-2-yl)morpholino)pyridin-2-yl)amino)-4-(1-methyl-1H-pyrrolo[2,3-b]pyridin-4-yl)-2,3-dihydro-1H-pyrrolo[3,4-c]pyridin-1-one], the IC50 is less than 100 nM.
For `CN(C)Cc1nc(Nc2ccc(-c3cnc4cc(F)ccn34)c3c2C(=O)NC3)ccc1[C@@H]1CCCOC1` [I-551], the IC50 is less than 100 nM.
Take `Cn1ccc2c(-c3ncc(Nc4ccnc(N5CC[C@@H]6CNC[C@@H]65)n4)c4c3CNC4=O)ccnc21` [I-685, 7-((2-((3aR,6aR)-hexahydro-pyrrolo[3,4-b]pyrrol-1(2H)-yl)pyrimidin-4-yl)amino)-4-(1-methyl-1H-pyrrolo[2,3-b]pyridin-4-yl)-2,3-dihydro-1H-pyrrolo[3,4-c]pyridin-1-one]: the IC50 is 100 to 1000 nM.
As to “(R)-7-((6- ((dimethylamino)- methyl)-5-(2- (methoxymeth- yl)morpholino )pyridin-2- yl)amino)-4-(7- fluoroimidazo [1,2-a]pyridin- 3-yl)isoindolin- 1-one [I-711]”, the IC50 is less than 100 nM.
Consider `O=C1NCc2c(-c3cnc4cc(F)ccn34)ccc(Nc3ccc(N4CCOC[C@@H](O)C4)cn3)c21` [I-339, (S)-4-(7-fluoroimidazo [1,2-a]pyridin-3-yl)-7-((5-(6-hydroxy-1,4-oxazepan-4-yl)pyridin-2-yl)amino)isoin-dolin-1-one], for which the IC50 was less than 100 nM.
Consider `CC(C)(O)[C@@H]1CN(c2ccc(Nc3ccc(-c4cnc5cnccn45)c4c3C(=O)NC4)nc2)CCO1` [I-457, 7-[[5-[(2S)-2-(1-hydroxy-1-methyl-ethyl)morpholin-4-yl]-2-pyridyl]amino] 4-imidazo[1,2-a]pyrazin-3-yl-isoindolin-1-one], for which the IC50 was less than 100 nM.
As for `Cc1ccc2c(-c3ccc(Nc4ccc(N5CCNCC5)cn4)c4c3CNC4=O)cnn2c1` [I-89, 4-(6-methylpyrazolo[1,5-a]pyridin-3-yl)-7-[(5-piperazin-1-yl-2-pyridyl)amino] isoindolin-1-one], the concentration for half-maximal inhibition (IC50) is less than 100 nM.
With `O=C1NCc2c(-c3cnc4cc(F)ccn34)ccc(Nc3ccc(N4C[C@H]5CC[C@@H](C4)C5O)cn3)c21` (stereo partly drawn) [I-404, 4-(7-fluoroimidazo [1,2-a]pyridin-3-yl)-7-((5-((1R,5S)-8-hydroxy-3-azabicyclo [3,2.1]octan-3-yl)pyridin-2-yl)amino)isoin-dolin-1-one], the IC50 is less than 100 nM.
To `Cc1c(F)ccn2c(-c3ccc(Nc4ccc(N5CCC(O)CC5)cn4)c4c3CNC4=O)cnc12` [I-209, 4-(7-fluoro-8-methyl-imidazo[1,2-a]pyridin-3-yl)-7-[[5-(4-hydroxy-1-piperidyl)-2-pyridyl]amino] isoindolin-1-one] belongs less than 100 nM.
In the case of `O=C1NCc2c(-c3cnc4cnccn34)ccc(Nc3ccc(N4CCC[C@@H](O)C4)cn3)c21` [I-171], the IC50 was less than 100 nM.
To `O=C1NCc2c(-c3cnc4cnccn34)ncc(Nc3ccc(N4CCC(O)CC4)cn3)c21` [I-208, 7-[[5-(4-hydroxy-1-piperidyl)-2-pyridyl]-amino]-4-imidazo[1,2-a]pyrazin-3-yl-2,3-dihydropyrrolo [3,4-c]pyridin-1-one] belongs 100 to 1000 nM; to “7-[[5-(4-hydroxy-1- piperidyl)-2-pyridyl] amino]-4-imidazo[1,2- a]pyridin-3-yl- isoindolin-1-one [I-125]”, less than 100 nM.
`COCC1CN(c2ccc(Nc3ccc(-c4cnc5nc(C)ccn45)c4c3C(=O)NC4)nc2)CCO1` (stereo in doubt) [I-628, (R)-7-((5-(2-(methoxymeth-yl)morpho-lino)pyridin-2-yl)amino)-4-(7-methylimidazol',2-a]pyriinidin-3-yl)isoindolin-1-one]: the IC50 is less than 100 nM.
To `CN(C)CCOc1ccn2c(-c3ccc(Nc4ccc(N5CCC(F)C(O)C5)cn4)c4c3CNC4=O)cnc2c1` (stereo not shown) [I-249] belongs 100 to 1000 nM; to `Cn1ccc2c(-c3ncc(Nc4cccc(C5CCNCC5)n4)c4c3CNC4=O)ccnc21` [I-390, 4-(1-methyl-1H-pyrrolo[2,3-b]pyridin-4-yl)-7-((6-(piperidin-4-yl)pyridin-2-yl)amino)-2,3-dihydro-1H-pyrrolo[3,4-c]pyridin-1-one], 100 to 1000 nM; to `CN(C)CCc1nc(Nc2cnc(-c3ccnc4c3ccn4C)c3c2C(=O)NC3)ccc1C1CCOC1` (stereo in doubt) [I-808, (S)-7-((6-(2-(dimothylami-no)ethyl)-5-(tetrahydrofuran-3-yl)pyridin-2-yl)amino)-4-(1-methyl-1H-pyrrolo[2,3-b]pyridin-4-yl)-2,3-dihydro-1H-pyrrolo[3,4-c]pyridin-1-one], less than 100 nM.
For `O=C1NCc2c(-c3cnc4c(F)cccn34)ncc(Nc3ccc(N4CC[C@@H](F)[C@@H](O)C4)cn3)c21` [I-659], the IC50 is less than 100 nM.
To `O=C1NCc2c(-c3cnc4cccnn34)ccc(Nc3ccc(N4CCNCC4)cn3)c21` [I-82, 4-imidazo[1,2-b]pyridazin-3-yl-7-[(5-piperazin-1-yl-2-pyridyl)amino] isoindolin-1-one] belongs less than 100 nM; to “7-[[5-[(2R)-2- (1-hydroxy-1- methylethyl)morpholin- 4-yl]-2- pyridyl]amino]- 4-imidazo[1,2- a]pyrazin-3-yl- isoindolin-1-one [I-486]”, less than 100 nM.
To `COCC1CN(c2ccc(Nc3ccc(-c4cnc5nc(C)ccn45)c4c3C(=O)NC4)nc2)CCO1` (stereo in doubt) [I-629, (S)-7-((5-(2-(methoxymeth-yl)morpho-lino)pyridin-2-yl)amino)-4-(7-methylimidazo [1,2-a]pyrimidin-3-yl) isoindolin-1-one] belongs less than 100 nM; to `CN1CCN(c2ccc(Nc3ccc(-c4ccn5ncccc45)c4c3C(=O)NC4)nc2)CC1` [I-256, 7-((5-(4-methylpiperazin-1-yl)pyridin-2-yl)amino)-4-(pyrrolo[1,2-b]pyridazin-5-yl)isoindolin-1-one], less than 100 nM; to “(S)-7-((5-(4-hydroxypiperidin-1-yl)pyridin-2-yl)amino)-3-methyl-4-(1-methyl-1H-pyrrolo[2,3-b]pyridin-4-yl)isoindolin-1-one [I-286]”, more than 1000 nM.
On to `COC1(c2ccc(Nc3ccc(-c4cnc5cc(F)ccn45)c4c3C(=O)NC4)nc2CN(C)C)CC1` [I-823, 7-((6-((dimethylamino)methyl)-5-(1-methoxycyclopropyl)pyridin-2-yl)amino)-4-(7-fluoroimidazo[1,2-a]pyridin-3-yl)isoindolin-1-one], for which the IC50 is less than 100 nM.
`Cc1cnn2c(-c3ccc(Nc4ccc([C@@H]5CCOC5)c(CN(C)C)n4)c4c3CNC4=O)cnc2c1` [I-538, (S)-7-((6-((dimethylamino)-methyl)-5-(tetrahydrofuran-3-yl)pyridin-2-yl)amino)-4-(7-methylimidazo [1,2-b]pyridazin-3-yl)isoindolin-1-one]: the IC50 was less than 100 nM.
As to `Cc1nc(Nc2cnc(-c3ccnc4c3ccn4C)c3c2C(=O)NC3)ccc1N1CCN(C)CC1` [I-589, 4-(1-methyl-1H-pyrrolo[2,3-b]pyridin-4-yl)-7-((6-methyl-5-(4-methylpiperazin-1-yl)pyridin-2-yl)amino)-2.3-dihydro-1H-pyrrolo[3,4-c]pyridin-1-one], the IC50 was less than 100 nM.
For the compound `COC[C@H]1CN(c2ccc(Nc3ccc(-c4cnc5cc(F)ccn45)c4c3C(=O)NC4)nc2)CCO1` [I-421, (R)-4-(7-fluoroimidazo [1,2-a]pyridin-3-yl)-7-((5-(2-(methoxymeth-yl)morpholino)pyridin-2-yl)amino)isoin-dolin-1-one], the IC50 is less than 100 nM.
For the compound `CN(C)Cc1nc(Nc2ccc(-c3cnc4cnccn34)c3c2C(=O)NC3)ccc1C1CCOCC1` [I-850, 7-[[6-[(dimethylami-no)methyl]-5-tetrahydropyran-4-yl-2-pyridyl]amino]-4-imidazo[1,2-a]pyrazin-3-yl-isoindolin-1-one], the IC50 was less than 100 nM.
To `CN1CCN(c2ccc(Nc3ccc(-c4ccn5ccnc5c4)c4c3C(=O)NC4)nc2)CC1` [I-35, 4-imidazol[1,2-a]pyridin-7-yl-7-[[5-(4-methylpiperazin-1-yl)-2-pyridyl]amino] isoindolin-1-one] belongs 100 to 1000 nM; to `O=C1NCc2c(-c3cnc4cc(F)ccn34)ccc(Nc3cccc(N4CC(O)C4)n3)c21` [I-323, 4-(7-fluoroimidazo [1,2-a]pyridin-3-yl)-7-((6-(3-hydroxyazeti-din-1-yl)pyridin-2-yl)amino)isoin-dolin-1-one], more than 1000 nM.
To `O=C1NCc2c(-c3cnc4c(F)cccn34)ccc(Nc3ccc(N4CCOCC4)cn3)c21` [I-156, 4-(8-fluoroimidazo [1,2-a]pyridin-3-yl)-7-[(5-morpholino-2-pyridyl)amino] isoindolin-1-one] belongs less than 100 nM.
In the case of `CN(C)Cc1nc(Nc2ccc(-c3cnc4cc(F)ccn34)c3c2C(=O)NC3)ccc1O[C@@H]1CCOC1` [I-533], the IC50 is less than 100 nM.

(Values after patent US11021481B2, “Substituted isoindolin-1-ones and 2,3-dihydro-1h-pyrrolo[3,4-c]pyridin-1-ones as HPK1 antagonists” (Nimbus Saturn, Inc., priority 2019, dated 2021).)
